TGI and GI50 data for ten molecules are collected here from PubChem BioAssay (NCI).

Holding throughout (experiment): NCI anticancer screen, dose series, 48 h
Test [1] relates to NCI-H23 lung.
The test system of test [2] is OVCAR-5 ovarian.
The test system of test [3] is MDA-MB-231 breast.
Test [4] deals with NCI-H460 lung.
In test [5] the test system is TK-10 renal.
For test [6], the system named is SK-MEL-2 melanoma.
In test [7] the test system is SK-OV-3 ovarian.
Test [8] has as its system UACC-62 melanoma.
Test [9] deals with SF-268 CNS.
The subject of test [10] is MALME-3M melanoma.

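96-well plates; 48 h exposure; 5 concentrations. Endpoints by linear interpolation between flanking doses. Not reached: highest tested concentration assigned. GI50 = concentration required for 50% inhibition of growth. Definition used: TGI = concentration required for complete inhibition of growth.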 A value given as a limit tells only on which side of the number the result lay.

With `CN1c2ccccc2S(=O)(=O)n2c(CCc3ccccc3)nnc21`, the TGI in [1], in test [2], in test [3], in [4], in test [5] and in [6] was > 100 µM each time. Further, the TGI in test [7], in test [8] and in test [9] was > 100 µM throughout.
For `CCN(CC)CCOc1c(OC)c(Br)cc2c(C)c(C(=O)OC)oc12`, the GI50 in test [1] is 1.12 µM; in test [2] it was 3.14 µM; in test [3], 1.22 µM; in test [4] it was 1.31 µM; in test [5], 1.12 µM; in test [6], 3.17 µM. Also, the GI50 in test [7] was 1.29 µM; in test [8], 1.33 µM; in test [9], 1.33 µM. The TGI in [1] turned out to be 2.68 µM; in test [2], 9.29 µM; in test [3], 3.46 µM; in [4], 3.75 µM; in test [5], 2.99 µM; in test [6], 50 µM. The values for the TGI in test [7], in test [8] and in test [9] were 4.1 µM, 4.92 µM and 5.08 µM, respectively.
For the molecule `CC1(C)C=[N+]([O-])C(C)(C)N1O`, the TGI in [1], in test [2], in test [10], in test [3], in test [4] and in [5] was > 10 µM in each case. Moreover, the TGI in [6] and in test [9] was > 10 µM in each case.
Turning to `CCCCCCCCCCCCCCCCCCNC(=O)OCC(CNS(=O)(=O)CCC[n+]1cccc2ccccc21)COC` (stereo not given), the TGI was 5.6 µM in [1]; 6.09 µM in test [2]; 18.7 µM in test [10]; 4.05 µM in test [3]; > 100 µM in test [4]; 31.1 µM in test [5]. Moreover, the TGI was > 24.5 µM in test [7], 8.21 µM in test [8] and > 20.4 µM in [9].
As for `CC[C@H](Nc1nc(N)nc(C2CC2)c1C#N)c1nc2cccc(NCc3ccc(C(=O)NO)cc3)c2c(=O)n1-c1ccccc1`, the GI50 in test [1] is 1.98 µM; in [2], 1.92 µM; in test [10], 1.78 µM; in [3], 1.42 µM; in test [4] it was 1.7 µM; in test [5] it was 2.75 µM. Also, the GI50 in [6] is 2.44 µM; in [7] it was 1.9 µM; in [9], 1.74 µM. Also, the TGI stood at 4.48 µM in test [1]; 5.08 µM in test [2]; 4.61 µM in test [10]; 3.86 µM in test [3]; 3.79 µM in test [4]; 30.3 µM in [5]. For the same molecule, the TGI in test [6] worked out at 6.75 µM; in [7] it was 4.38 µM; in [9], 4.12 µM.
As to `CCn1c(=O)c2c3ccc(OC(C)=O)cc3[nH]c2c2ccc(OC(C)=O)cc21`, the TGI in test [1], in test [2], in test [10], in test [3], in test [4] and in [5] was > 100 µM each time. Besides, the TGI in test [7], in test [8] and in test [9] was > 100 µM in each case.
For the molecule `CCOC(=O)Cc1csc(N=Nc2c(O)[nH]c3ccccc23)n1`, the TGI in test [1], in test [2], in test [3], in [4], in test [5] and in test [6] was > 100 µM in each case. For the same molecule, the TGI in test [7], in test [8] and in test [9] was > 100 µM throughout.
With `CC(=O)c1cccc(-c2cccc(-c3ccn(CCN4CCOCC4)n3)c2)c1`, the GI50 in test [1], in [2], in test [3], in test [4], in [5] and in [6] was > 20 µM each time. The GI50 in [7], in test [8] and in test [9] was > 20 µM each time. For the same molecule, the TGI in test [1], in [2], in test [3], in [4], in test [5] and in test [6] was > 20 µM each time. Moreover, the TGI in test [7], in [8] and in test [9] was > 20 µM throughout.
As to `CC1(C)C(=O)C=CC2(C)C1CC(O)C1(C)C2CCC2(C)C(c3ccoc3)OC(=O)C3OC321` (stereo not given), the TGI in test [1] was 28.6 µM; in test [2] it was > 100 µM; in [3], 36.7 µM; in test [4], 27.6 µM; in [5] it was 37.5 µM; in test [6], 35.1 µM. In addition, the figures for the TGI in test [7] and in test [8] were > 100 µM and 26.9 µM, respectively.
`C/C=C(/C)c1cnc(CC(C)C)c(=O)[nH]1`: the TGI in test [1], in test [2], in test [3], in test [4], in [5] and in [6] was > 100 µM in each case. Moreover, the TGI in test [7], in test [8] and in [9] was > 100 µM each time.
